Drawing on US9562053B2, “Benzo-fused heterocyclic derivatives useful as agonists of GPR120” (Janssen Pharmaceutica NV, priority 2013, dated 2017), this text covers EC50 for 30 compounds.

SMILES strings stand for the structures.

The test concerns the target T1, Human GPR120 short form (Homo sapiens, UniProt Q5NUL3).
T1 construct: expressed in transfected cells
T1 sequence (Q5NUL3 1-361): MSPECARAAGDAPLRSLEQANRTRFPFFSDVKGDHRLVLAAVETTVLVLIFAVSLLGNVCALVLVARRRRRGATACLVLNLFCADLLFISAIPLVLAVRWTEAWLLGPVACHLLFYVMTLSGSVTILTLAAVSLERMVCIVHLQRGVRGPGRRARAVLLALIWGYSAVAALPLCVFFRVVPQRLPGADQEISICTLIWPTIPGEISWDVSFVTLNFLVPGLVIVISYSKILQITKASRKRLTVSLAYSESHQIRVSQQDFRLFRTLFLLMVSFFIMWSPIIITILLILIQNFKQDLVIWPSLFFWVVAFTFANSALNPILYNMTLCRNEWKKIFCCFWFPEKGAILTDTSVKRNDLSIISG
The test is described as follows: Human GPR120 in Calcium Flux Assay, Procedure Calcium A (2500 cells/well). In kind it is cell-based. The procedure, abridged:
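HEK293 cells stably expressing GPR120 short isoform, 2500 cells/well, serum-starved 1 h, loaded with Fluo-4 NW plus probenecid (30 min 37 °C, 15 min RT). Compounds prepared at 0.012–100 μM, 0.2% DMSO final. FLIPR calcium signal over 300 s as Fmax−Fmin; EC50 from variable-slope fit (Hill <2).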
For orientation: Calcium assays in cells follow changes in intracellular calcium, usually with a dye or a luminescent sensor.
As for `CCCc1cc2cc(Cl)cc(COc3ccc(CCC(=O)O)c(F)c3F)c2o1` [Compound 59, 3-{4-[(5-Chloro-2-propyl-1-benzofuran-7-yl)methoxy]-2,3-difluorophenyl}propanoic acid], the concentration for a half-maximal effect (EC50) was found to be 93 nM.

Take `Cc1oc2cccc(COc3ccc(CCC(=O)O)c(C)c3C)c2c1C` [Compound 60, 3-{4-[(2,3-Dimethyl-1-benzofuran-4-yl)methoxy]-2,3-dimethylphenyl}propanoic acid]: the concentration giving a half-maximal response (EC50) was 162 nM.

With `CCc1cc2cc(Cl)c(CC)c(COc3ccc(CCC(=O)O)c(C)c3C)c2o1` [Compound 61, 3-{4-[(5-Chloro-2,6-diethyl-1-benzofuran-7-yl)methoxy]-2,3-dimethylphenyl}propanoic acid], the EC50 was 24 nM.

For `CCOc1c(Cl)cc2cc(CC)oc2c1COc1ccc(CCC(=O)O)c(C)c1C` [Compound 62, 3-{4-[(5-Chloro-6-ethoxy-2-ethyl-1-benzofuran-7-yl)methoxy]-2,3-dimethylphenyl}propanoic acid], the half-maximal effective concentration (EC50) is 67 nM.

For the compound `CCc1cc2cc(Cl)c(OCCOC)c(COc3ccc(CCC(=O)O)c(C)c3C)c2o1` [Compound 63, 3-(4-{[5-Chloro-2-ethyl-6-(2-methoxyethoxy)-1-benzofuran-7-yl]methoxy}-2,3-dimethylphenyl)propanoic acid], the EC50 stood at 67 nM.

`CCc1cc2cc(Cl)c(OCC(F)(F)F)c(COc3ccc(CCC(=O)O)c(C)c3C)c2o1` [Compound 64, 3-(4-{[5-Chloro-2-ethyl-6-(2,2,2-trifluoroethoxy)-1-benzofuran-7-yl]methoxy}-2,3-dimethylphenyl)propanoic acid]: the EC50 is 56 nM.

For `CCc1cc2cc(Cl)c(OC(C)C)c(COc3ccc(CCC(=O)O)c(C)c3C)c2o1` [Compound 65, 3-(4-{[5-Chloro-2-ethyl-6-(1-methylethoxy)-1-benzofuran-7-yl]methoxy}-2,3-dimethylphenyl)propanoic acid], the half-maximal effective concentration (EC50) was 96 nM.

As for `CCOc1ccc2cc(CC)oc2c1COc1ccc(CCC(=O)O)c(C)c1C` [Compound 66, 3-{4-[(6-Ethoxy-2-ethyl-1-benzofuran-7-yl)methoxy]-2,3-dimethylphenyl}propanoic acid], the EC50 came out at 77 nM.

In the case of `CCc1cc2cc(Cl)c(OCC(C)C)c(COc3ccc(CCC(=O)O)c(C)c3C)c2o1` [Compound 67, 3-(4-{[5-Chloro-2-ethyl-6-(2-methylpropoxy)-1-benzofuran-7-yl]methoxy}-2,3-dimethylphenyl)propanoic acid], the 50% effective concentration (EC50) amounted to 93 nM.

Turning to `CCc1cc2cc(Cl)c(OC(F)F)c(COc3ccc(CCC(=O)O)c(C)c3C)c2o1` [Compound 69, 3-(4-{[5-Chloro-6-(difluoromethoxy)-2-ethyl-1-benzofuran-7-yl]methoxy}-2,3-dimethylphenyl)propanoic acid], the EC50 came to 45 nM.

Consider `CCc1cc2ccc(OC(F)F)c(COc3ccc(CCC(=O)O)c(C)c3C)c2o1` [Compound 70, 3-(4-{[6-(Difluoromethoxy)-2-ethyl-1-benzofuran-7-yl]methoxy}-2,3-dimethylphenyl)propanoic acid], for which the concentration for a half-maximal effect (EC50) was determined as 162 nM.

As to `Cc1cc2c(F)c(OC(F)(F)F)c(F)c(COc3ccc(CCC(=O)O)c(C)c3C)c2o1` [Compound 71, 3-(4-{[4,6-Difluoro-2-methyl-5-(trifluoromethoxy)-1-benzofuran-7-yl]methoxy}-2,3-dimethylphenyl)propanoic acid], the EC50 is 64 nM.

In the case of `Cc1cc2c(F)c(OC(F)(F)F)c(F)c(COc3ccc(CCC(=O)O)c(F)c3F)c2o1` [Compound 75, 3-(4-{[4,6-Difluoro-2-methyl-5-(trifluoromethoxy)-1-benzofuran-7-yl]methoxy}-2,3-difluorophenyl)propanoic acid], the EC50 stood at 182 nM.

Take `Cc1cc2cc(OC(F)F)cc(COc3ccc(CCC(=O)O)c(C)c3C)c2o1` [Compound 76, 3-(4-{[5-(Difluoromethoxy)-2-methyl-1-benzofuran-7-yl]methoxy}-2,3-dimethylphenyl)propanoic acid]: the 50% effective concentration (EC50) is 20 nM.

Regarding `CCCc1cc2cc(OC(F)F)cc(COc3ccc(CCC(=O)O)c(C)c3C)c2o1` [Compound 77, 3-(4-{[5-(Difluoromethoxy)-2-propyl-1-benzofuran-7-yl]methoxy}-2,3-dimethylphenyl)propanoic acid], the concentration giving a half-maximal response (EC50) came out at 28 nM.

For the compound `Cc1cc2cc(Cl)cc(COc3ccc(CCC(=O)O)c(C)c3C)c2o1` [Compound 78, 3-{4-[(5-Chloro-2-methyl-1-benzofuran-7-yl)methoxy]-2,3-dimethylphenyl}propanoic acid], the EC50 turned out to be 20 nM.

On to `Cc1oc2cc(Cl)cc(COc3ccc(CCC(=O)O)c(C)c3C)c2c1C` [Compound 80, 3-{4-[(6-Chloro-2,3-dimethyl-1-benzofuran-4-yl)methoxy]-2,3-dimethylphenyl}propanoic acid], for which the EC50 stood at 151 nM.

Take `Cc1cc2c(COc3ccc(CCC(=O)O)c(C)c3C)cc(Cl)cc2o1` [Compound 81, 3-{4-[(6-Chloro-2-methyl-1-benzofuran-4-yl)methoxy]-2,3-dimethylphenyl}propanoic acid]: the concentration giving a half-maximal response (EC50) worked out at 136 nM.

On to `Cc1cc2cc3c(c(COc4ccc(CCC(=O)O)c(C)c4C)c2o1)OCO3` [Compound 82, 3-{2,3-Dimethyl-4-[(6-methylfuro[2,3-f][1,3]benzodioxol-4-yl)methoxy]phenyl}propanoic acid], for which the concentration giving a half-maximal response (EC50) turned out to be 153 nM.

On to `CC#Cc1cc(COc2ccc(CCC(=O)O)c(C)c2C)c2oc(C)cc2c1` [Compound 83, 3-{2,3-Dimethyl-4-[(2-methyl-5-prop-1-yn-1-yl-1-benzofuran-7-yl)methoxy]phenyl}propanoic acid], for which the half-maximal effective concentration (EC50) was 51 nM.

As for `Cc1nc2cc(Cl)cc(COc3ccc(CCC(=O)O)c(C)c3C)c2o1` [Compound 84, 3-{4-[(5-Chloro-2-methyl-1,3-benzoxazol-7-yl)methoxy]-2,3-dimethylphenyl}propanoic acid], the concentration giving a half-maximal response (EC50) worked out at 131 nM.

As for `Cc1cc2cc(Cl)c(C)c(COc3ccc(CCC(=O)O)c(C)c3C)c2o1` [Compound 85, 3-{4-[(5-Chloro-2,6-dimethyl-1-benzofuran-7-yl)methoxy]-2,3-dimethylphenyl}propanoic acid], the EC50 was 15 nM.

Take `Cc1cc2cc(Cl)c(C)c(COc3c(F)cc(CCC(=O)O)cc3F)c2o1` [Compound 86, 3-{4-[(5-Chloro-2,6-dimethyl-1-benzofuran-7-yl)methoxy]-3,5-difluorophenyl}propanoic acid]: the half-maximal effective concentration (EC50) was 207 nM.

As to `Cc1c(CCC(=O)O)ccc(OCc2cc(Cl)cc3cc(CC(F)F)oc23)c1C` [Compound 87, 3-(4-{[5-Chloro-2-(2,2-difluoroethyl)-1-benzofuran-7-yl]methoxy}-2,3-dimethylphenyl)propanoic acid], the EC50 was 79 nM.

Consider `Cc1cc2cc3c(c(COc4ccc(CCC(=O)O)c(C)c4C)c2o1)OC(F)(F)O3` [Compound 89, 3-{4-[(2,2-Difluoro-6-methylfuro[2,3-f][1,3]benzodioxol-4-yl)methoxy]-2,3-dimethylphenyl}propanoic acid], for which the EC50 was 17 nM.

With `Cc1cc2cc3c(c(COc4ccc(CCC(=O)O)c(C)c4C)c2o1)OCCO3` [Compound 90, 3-{2,3-Dimethyl-4-[(7-methyl-2,3-dihydrofuro[2,3-g][1,4]benzodioxin-5-yl)methoxy]phenyl}propanoic acid], the EC50 was found to be 113 nM.

As to `Cc1cc2cc(Cl)cc(COc3ccc(CCC(=O)O)c(C)c3C)c2s1` [Compound 91, 3-{4-[(5-Chloro-2-methyl-1-benzothiophen-7-yl)methoxy]-2,3-dimethylphenyl}propanoic acid], the EC50 amounted to 1920 nM.

Take `Cc1cc2cc(Cl)cc(COc3c(F)cc(CCCO)cc3F)c2s1` [Compound 93, 3-{4-[(5-Chloro-2-methyl-1-benzothiophen-7-yl)methoxy]-3,5-difluorophenyl}propan-1-ol]: the EC50 stood at 1600 nM.

Take `Cc1c(CCC(=O)O)ccc(OCc2cc(OC(F)(F)F)cc3cc(CC(F)F)oc23)c1C` [Compound 96, 3-(4-{[2-(2,2-Difluoroethyl)-5-(trifluoromethoxy)-1-benzofuran-7-yl]methoxy}-2,3-dimethylphenyl)propanoic acid]: the concentration for a half-maximal effect (EC50) worked out at 30 nM.

Turning to `Cc1nc2c(COc3ccc(CCC(=O)O)c(C)c3C)cc(Cl)cc2s1` [Compound 98, 3-{4-[(6-Chloro-2-methyl-1,3-benzothiazol-4-yl)methoxy]-2,3-dimethylphenyl}propanoic acid], the EC50 was 18 nM.

What is called EC50 is the concentration giving half of the maximal effect.
